We go through eleven compounds from US7928103B2, “Compounds which modulate the CB2 receptor” (Boehringer Ingelheim International GmbH, priority 2006, dated 2011).

Assay [1] deals with T1, human CB2R (Homo sapiens, UniProt P34972). The experiment in a line: CB2R mediated modulation of cAMP synthesis. It is filed as cell-based. Conditions: agonists decrease forskolin induced production of cAMP; CHO cells expressing human CB2R. The arrangement: host or cells: CHO cells. The procedure:
B. CB2R Mediated Modulation of cAMP Synthesis:
Compounds of the invention were evaluated for their CB2 agonist or inverse agonistic activity in accordance with the following experimental method.
CHO cells expressing human CB2R (Euroscreen) were plated at a density of 5000 cells per well in 384 well plates and incubated overnight at 37° C. After removing the media, the cells were treated with test compounds diluted in stimulation buffer containing 1 mM IBMX, 0.25% BSA and 10 uM Forskolin. The assay was incubated for 30 minutes at 37° C. Cells were lysed and the cAMP concentration was measured using DiscoverX-XS cAMP kit, following the manufacturer's protocol. In this setting, agonists will decrease forskolin induced production of cAMP while inverse agonists will further increase forskolin induced production of cAMP. EC50 of agonists were calculated as follows. The maximal amount of cAMP produced by forskolin compared to the level of cAMP inhibited by 1 uM CP55940 is defined as 100%. The EC50 value of each test compound was determined as the concentration at which 50% of the forskolin-stimulated cAMP synthesis was inhibited. Data was analyzed using a four-parameter logistic model. (Model 205 of XLfit 4.0).

For assay [2], the target named is T1, human CB2R. The experiment in a line: Human CB2 receptor binding (3H-CP55940 competition, SPA). The arrangement: purchased Perkin Elmer Life and Analytical Sciences; host or cells: HEK293 EBNA cells, stably transfected. Conditions: through the use of the above described assays (CB1/CB2 binding, CB2R and CB1R cAMP); assay not specified further. The method, then: A. Human CB1 and CB2 Receptor Binding:
CB2 membranes were purchased and made from HEK293 EBNA cells stably transfected with human CB2 receptor cDNA (Perkin Elmer Life and Analytical Sciences). CB1 membranes were isolated from HEK cells stably co-transfected with human CB1 receptor and Gα16 cDNA's. The membrane preparation was bound to scintillation beads (Ysi-Poly-L-lysine SPA beads, GE Healthcare) for 4 hours at room temperature in assay buffer containing 50 mM Tris, pH 7.5, 2.5 mM EDTA, 5 mM MgCl2, 0.8% fatty acid free Bovine Serum Albumin. Unbound membrane was removed by washing in assay buffer. Membrane-bead mixture was added to 96-well assay plates in the amounts of 15 ug membrane per well (CB2) or 2.5 ug per well (CB1) and 1 mg SPA bead per well. Compounds were added to the membrane-bead mixture in dose-response concentrations ranging from 1×10^−5 M to 1×10^−10 M with 0.25% DMSO, final. The competition reaction was initiated with the addition of ^3H-CP55940 (Perkin Elmer Life and Analytical Sciences) at a final concentration of 1.5 nM (CB2) or 2.5 nM (CB1). The reaction was incubated at room temperature for 18 hours and read on TopCount NXT plate reader. Total and non-specific binding was determined in the absence and presence of 1.25 uM Win 55212 (Sigma). IC50 values for each compound were calculated as the concentration of compound that inhibits the specific binding of the radioactively labeled ligand to the receptor by 50% using the XLFit 4.1 four parameter logistic model. IC50 values were converted to inhibition constant (Ki) values using Cheng-Prusoff equation.

Molecules are shown by their SMILES.

T1 sequence (P34972 whole entry): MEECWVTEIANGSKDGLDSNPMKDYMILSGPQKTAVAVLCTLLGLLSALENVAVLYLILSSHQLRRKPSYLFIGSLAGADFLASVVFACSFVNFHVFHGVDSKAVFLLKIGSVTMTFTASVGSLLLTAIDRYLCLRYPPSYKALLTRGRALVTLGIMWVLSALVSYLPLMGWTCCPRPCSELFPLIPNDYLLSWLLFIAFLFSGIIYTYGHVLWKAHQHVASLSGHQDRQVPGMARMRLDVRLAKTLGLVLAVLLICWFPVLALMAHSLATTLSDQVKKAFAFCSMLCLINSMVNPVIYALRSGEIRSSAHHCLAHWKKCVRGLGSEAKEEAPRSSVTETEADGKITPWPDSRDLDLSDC

As to `Fc1ccccc1Nc1ccc(CN2CCO[C@@H](c3ccccc3)C2)cn1` [Example 16, (2-Fluoro-phenyl)-[5-((S)-2-phenyl-morpholin-4-ylmethyl)-pyridin-2-yl]-amine], at human CB2R [1], the “found to exhibit agonistic activity” value is listed as “exhibit agonistic activity”. The “found to exhibit activity” value on human CB2R [2] was “exhibit activity”.

Consider `Clc1ccc(Nc2ccc(CN3CCO[C@@H](c4ccccc4)C3)cn2)cc1Cl` [Example 27, (3,4-Dichloro-phenyl)-[5-((S)-2-phenyl-morpholin-4-ylmethyl)-pyridin-2-yl]-amine], for which, on human CB2R [1], the “found to exhibit agonistic activity” value was “exhibit agonistic activity”. Also, the “found to exhibit activity” value on human CB2R [2] is “exhibit activity”.

In the case of `Clc1ccc(Cl)c(Nc2ccc(CN3CCO[C@@H](c4ccccc4)C3)cn2)c1` [Example 20, (2,5-Dichloro-phenyl)-[5-((S)-2-phenyl-morpholin-4-ylmethyl)-pyridin-2-yl]-amine], on human CB2R [1], the “found to exhibit agonistic activity” value is “exhibit agonistic activity”. The “found to exhibit activity” value on human CB2R [2] is listed as “exhibit activity”.

Consider `c1ccc([C@H]2CN(Cc3ccc(Nc4cccc5cccnc45)nc3)CCO2)cc1` [Example 13, [5-((S)-2-Phenyl-morpholin-4-ylmethyl)-pyridin-2-yl]-quinolin-8-yl-amine], for which the “found to exhibit agonistic activity” value at human CB2R [1] was “exhibit agonistic activity”. In addition, on human CB2R [2], the “found to exhibit activity” value was “exhibit activity”.

Consider `c1ccc(Nc2ccc(CN3CCO[C@@H](c4ccccc4)C3)cn2)cc1` [Example 15, Phenyl-[5-((S)-2-phenyl-morpholin-4-ylmethyl)-pyridin-2-yl]-amine], for which the “found to exhibit agonistic activity” value at human CB2R [1] was “exhibit agonistic activity”. The “found to exhibit activity” value on human CB2R [2] was “exhibit activity”.

On to `Cc1cccc(Nc2ccc(CN3CCO[C@@H](c4ccccc4)C3)cn2)c1` [Example 28, [5-((S)-2-Phenyl-morpholin-4-ylmethyl)-pyridin-2-yl]-m-tolyl-amine], for which, on human CB2R [1], the “found to exhibit agonistic activity” value is “exhibit agonistic activity”. In addition, the “found to exhibit activity” value on human CB2R [2] is “exhibit activity”.

For `c1ccc([C@H]2CN(Cc3ccc(Nc4ccncc4)nc3)CCO2)cc1` [Example 10, [5-((S)-2-Phenyl-morpholin-4-ylmethyl)-pyridin-2-yl]-pyridin-4-yl-amine], at human CB2R [1], the “found to exhibit agonistic activity” value is on record as “exhibit agonistic activity”. Also, the “found to exhibit activity” value at human CB2R [2] was “exhibit activity”.

`c1ccc([C@H]2CN(Cc3ccc(Nc4cccc5cnccc45)nc3)CCO2)cc1` [Example 14, Isoquinolin-5-yl-[5-((S)-2-phenyl-morpholin-4-ylmethyl)-pyridin-2-yl]-amine]: the “found to exhibit agonistic activity” value on human CB2R [1] was “exhibit agonistic activity”. The “found to exhibit activity” value at human CB2R [2] is on record as “exhibit activity”.

For the compound `c1ccc([C@H]2CN(Cc3ccc(Nc4cc5ccccc5cn4)nc3)CCO2)cc1` [Example 33, Isoquinolin-3-yl-[5-((S)-2-phenyl-morpholin-4-ylmethyl)-pyridin-2-yl]-amine], the “found to exhibit agonistic activity” value on human CB2R [1] is on record as “exhibit agonistic activity”. Besides, at human CB2R [2], the “found to exhibit activity” value is “exhibit activity”.

On to `c1ccc([C@H]2CN(Cc3ccc(Nc4ccc5ccccc5c4)nc3)CCO2)cc1` [Example 7, Naphthalen-2-yl-[5-((S)-2-phenyl-morpholin-4-ylmethyl)-pyridin-2-yl]-amine], for which the “found to exhibit agonistic activity” value at human CB2R [1] is listed as “exhibit agonistic activity”. The “found to exhibit activity” value on human CB2R [2] is reported as “exhibit activity”.

Regarding `c1ccc([C@H]2CN(Cc3ccc(Nc4ccncn4)nc3)CCO2)cc1` [Example 8, [5-((S)-2-Phenyl-morpholin-4-ylmethyl)-pyridin-2-yl]-pyrimidin-4-yl-amine], the “found to exhibit agonistic activity” value on human CB2R [1] is recorded as “exhibit agonistic activity”. Further, on human CB2R [2], the “found to exhibit activity” value is recorded as “exhibit activity”.
